Test system: HBV viral production from HepAD38 cells
Test: Activity of test compounds on viral production from HepAD38 cells (viral load by qPCR of HBV core sequence in supernatant)
Type: cell-based
Conditions: Hepatitis B virus, 120 h, 5 days incubation, HBV DNA in supernatant by qPCR, top concentration 10 μM, read-out: Viral Load EC50 Activity range
How it was run: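 EC50 and CC50 come from four-parameter fits of supernatant viral load and CellTiter-Glo viability, respectively. Viral load was measured by core-region TaqMan qPCR against HBV DNA standards and compared with DMSO controls. Tet-free HepAD38 cells (50,000/well, 2% FBS) were exposed to compound, highest 10 μM, for 5 days at 37° C.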

| Compound | EC50 |
| --- | --- |
| CN1[C@H](C(=O)Nc2ccc(F)c(Cl)c2)C[C@H](c2ncc(-c3cn[nH]c3)s2)NS1(=O)=O [HBV-CSU-254-ISO-I, Cis-5-(5-(1H-pyrazol-4-yl)thiazol-2-yl)-N-(3-chloro-4-fluorophenyl)-2-methyl-1,2,6-thiadiazinane-3-carboxamide 1,1-dioxide] | < 1000 nM |
| CN1[C@@H](C(=O)Nc2ccc(F)c(Cl)c2)C[C@@H](c2ncc(-c3cn[nH]c3)s2)NS1(=O)=O [HBV-CSU-254-ISO-II, Cis-5-(5-(1H-pyrazol-4-yl)thiazol-2-yl)-N-(3-chloro-4-fluorophenyl)-2-methyl-1,2,6-thiadiazinane-3-carboxamide 1,1-dioxide] | 1000 to 5000 nM |
| COC(=O)c1ccc(C2CC(C(=O)Nc3ccc(F)c(Cl)c3)N(C)S(=O)(=O)N2)cc1 (stereo not drawn) [HBV-CSU-256, Cis-methyl 4-(5-((3-chloro-4-fluorophenyl)carbamoyl)-6-methyl-1,1-dioxido-1,2,6-thiadiazinan-3-yl)benzoate] | 1000 to 5000 nM |
| CN1C(C(=O)Nc2ccc(F)c(Br)c2)CC(c2ccc(Br)s2)NS1(=O)=O (stereo not drawn) [HBV-CSU-257, Cis-N-(3-Bromo-4-fluorophenyl)-5-(5-bromothiophen-2-yl)-2-methyl-1,2,6-thiadiazinane-3-carboxamide 1,1-dioxide] | < 1000 nM |
| CN1C(C(=O)Nc2ccc(F)c(Cl)c2)CC(c2cccc(C(F)(F)F)c2)NS1(=O)=O (stereo not drawn) [HBV-CSU-259, Cis-N-(3-chloro-4-fluorophenyl)-2-methyl-5-(3-(trifluoromethyl)phenyl)-1,2,6-thiadiazinane-3-carboxamide 1,1-dioxide] | < 1000 nM |
| CN1C(C(=O)Nc2ccc(F)c(Cl)c2)CC(c2cc(Cl)c(O)c(Cl)c2)NS1(=O)=O (stereo not drawn) [HBV-CSU-260, Cis-N-(3-Chloro-4-fluorophenyl)-5-(3,5-dichloro-4-hydroxyphenyl)-2-methyl-1,2,6-thiadiazinane-3-carboxamide 1,1-dioxide] | < 1000 nM |
| CN1[C@H](C(=O)Nc2ccc(F)c(Cl)c2)C[C@H](c2cccc(Cl)c2)NS1(=O)=O [HBV-CSU-261-ISO-I, Cis-N-(3-Chloro-4-fluorophenyl)-5-(3-chlorophenyl)-2-methyl-1,2,6-thiadiazinane-3-carboxamide 1,1-dioxide] | < 1000 nM |
| CN1[C@@H](C(=O)Nc2ccc(F)c(Cl)c2)C[C@@H](c2cccc(Cl)c2)NS1(=O)=O [HBV-CSU-261-ISO-II, Cis-N-(3-Chloro-4-fluorophenyl)-5-(3-chlorophenyl)-2-methyl-1,2,6-thiadiazinane-3-carboxamide 1,1-dioxide] | > 5000 nM |
| CN1C(C(=O)Nc2ccc(F)c(Cl)c2)CC(c2ccc(Cl)cc2)NS1(=O)=O (stereo not drawn) [HBV-CSU-265, Cis-N-(3-Chloro-4-fluorophenyl)-5-(4-chlorophenyl)-2-methyl-1,2,6-thiadiazinane-3-carboxamide 1,1-dioxide] | < 1000 nM |
| CN1[C@@H](C(=O)Nc2ccc(F)c(Cl)c2)C[C@@H](c2ccc(Cl)cc2)NS1(=O)=O [HBV-CSU-265-ISO-II] | > 5000 nM |
| CN1[C@H](C(=O)Nc2ccc(F)c(Cl)c2)C[C@H](c2ccc(Cl)cc2)NS1(=O)=O [HBV-CSU-265-ISO-I] | < 1000 nM |
| CN1[C@H](C(=O)Nc2ccc(F)c(Cl)c2)C[C@H](c2ccc(-c3cn(C)cn3)s2)NS1(=O)=O [HBV-CSU-266-ISO-I, (3S,5R)-N-(3-chloro-4-fluorophenyl)-2-methyl-5-(5-(1-methyl-1H-imidazol-4-yl)thiophen-2-yl)-1,2,6-thiadiazinane-3-carboxamide 1,1-dioxide] | < 1000 nM |
| CN1[C@@H](C(=O)Nc2ccc(F)c(Cl)c2)C[C@@H](c2ccc(-c3cn(C)cn3)s2)NS1(=O)=O [HBV-CSU-266-ISO-II, Cis-N-(3-Chloro-4-fluorophenyl)-2-methyl-5-(5-(1-methyl-1H-imidazol-4-yl)thiophen-2-yl)-1,2,6-thiadiazinane-3-carboxamide 1,1-dioxide] | 1000 to 5000 nM |
| CN1[C@@H](C(=O)Nc2ccc(F)c(Cl)c2)C[C@H](c2ccc(-c3cn(C)cn3)s2)NS1(=O)=O [HBV-CSU-266-Trans-ISO-I, (3R,5R)-N-(3-chloro-4-fluorophenyl)-2-methyl-5-(5-(1-methyl-1H-imidazol-4-yl)thiophen-2-yl)-1,2,6-thiadiazinane-3-carboxamide 1,1-dioxide] | < 1000 nM |
| CN1[C@H](C(=O)Nc2ccc(F)c(Cl)c2)C[C@@H](c2ccc(-c3cn(C)cn3)s2)NS1(=O)=O [HBV-CSU-266-Trans-ISO-II, (3S,5S)-N-(3-chloro-4-fluorophenyl)-2-methyl-5-(5-(1-methyl-1H-imidazol-4-yl)thiophen-2-yl)-1,2,6-thiadiazinane-3-carboxamide 1,1-dioxide] | 1000 to 5000 nM |
| CN1[C@H](C(=O)Nc2ccc(F)c(Cl)c2)C[C@H](c2ccc(-c3cncn3C)s2)NS1(=O)=O [HBV-CSU-267-ISO-I, Cis-N-(3-Chloro-4-fluorophenyl)-2-methyl-5-(5-(1-methyl-1H-imidazol-5-yl)thiophen-2-yl)-1,2,6-thiadiazinane-3-carboxamide 1,1-dioxide] | < 1000 nM |
| CN1[C@@H](C(=O)Nc2ccc(F)c(Cl)c2)C[C@@H](c2ccc(-c3cncn3C)s2)NS1(=O)=O [HBV-CSU-267-ISO-II, Cis-N-(3-Chloro-4-fluorophenyl)-2-methyl-5-(5-(1-methyl-1H-imidazol-5-yl)thiophen-2-yl)-1,2,6-thiadiazinane-3-carboxamide 1,1-dioxide] | < 1000 nM |
| CN1[C@H](C(=O)Nc2ccc(F)c(Cl)c2)C[C@H](c2ccc(-c3cncs3)s2)NS1(=O)=O [HBV-CSU-268-ISO-I, Cis-N-(3-Chloro-4-fluorophenyl)-2-methyl-5-(5-(thiazol-5-yl)thiophen-2-yl)-1,2,6-thiadiazinane-3-carboxamide 1,1-dioxide] | < 1000 nM |
| CN1[C@@H](C(=O)Nc2ccc(F)c(Cl)c2)C[C@@H](c2ccc(-c3cncs3)s2)NS1(=O)=O [HBV-CSU-268-ISO-II, Cis-N-(3-Chloro-4-fluorophenyl)-2-methyl-5-(5-(thiazol-5-yl)thiophen-2-yl)-1,2,6-thiadiazinane-3-carboxamide 1,1-dioxide] | > 5000 nM |
| CN1[C@H](C(=O)Nc2ccc(F)c(Cl)c2)C[C@H](c2ccc(-c3cnco3)s2)NS1(=O)=O [HBV-CSU-269-ISO-I, Cis-N-(3-Chloro-4-fluorophenyl)-2-methyl-5-(5-(oxazol-5-yl)thiophen-2-yl)-1,2,6-thiadiazinane-3-carboxamide 1,1-dioxide] | < 1000 nM |
| CN1[C@@H](C(=O)Nc2ccc(F)c(Cl)c2)C[C@@H](c2ccc(-c3cnco3)s2)NS1(=O)=O [HBV-CSU-269-ISO-II, Cis-N-(3-Chloro-4-fluorophenyl)-2-methyl-5-(5-(oxazol-5-yl)thiophen-2-yl)-1,2,6-thiadiazinane-3-carboxamide 1,1-dioxide] | 1000 to 5000 nM |
| CN1[C@H](C(=O)Nc2ccc(F)c(Cl)c2)C[C@H](c2ccc(-c3ccn(C)n3)s2)NS1(=O)=O [HBV-CSU-270-ISO-I, Cis-N-(3-Chloro-4-fluorophenyl)-2-methyl-5-(5-(1-methyl-1H-pyrazol-3-yl)thiophen-2-yl)-1,2,6-thiadiazinane-3-carboxamide 1,1-dioxide] | < 1000 nM |
| CN1[C@@H](C(=O)Nc2ccc(F)c(Cl)c2)C[C@@H](c2ccc(-c3ccn(C)n3)s2)NS1(=O)=O [HBV-CSU-270-ISO-II, Cis-N-(3-Chloro-4-fluorophenyl)-2-methyl-5-(5-(1-methyl-1H-pyrazol-3-yl)thiophen-2-yl)-1,2,6-thiadiazinane-3-carboxamide 1,1-dioxide] | 1000 to 5000 nM |

Reference: patent publication US11078170B2 (Assembly Biosciences, Inc., priority 2017, dated 2021)
